Laboratory results as given in BigSolDB 2.1.

C=C1CCN([C@H](C)[C@](O)(Cn2cncn2)c2ccc(F)cc2F)CC1
solubility (mole fraction)
Settings	288.15 K	293.15 K	298.15 K	303.15 K	308.15 K
in DMF	0.281	0.298	0.316	0.334	0.353
in THF	0.321	0.335	0.351	0.367	0.382
in acetone	0.243	0.261	0.28	0.301	0.321
in acetonitrile	0.0874	0.109	0.136	0.168	0.204
in dichloromethane	0.321	0.34	0.358	0.379	0.4
in ethanol	0.122	0.144	0.172	0.203	0.242
in ethyl acetate	0.231	0.251	0.272	0.297	0.321
in isopropanol	0.0849	0.105	0.125	0.152	0.184
in methanol	0.176	0.195	0.214	0.236	0.259
in n-butanol	0.113	0.135	0.159	0.185	0.218
in n-propanol	0.12	0.142	0.164	0.191	0.222
in propylene glycol	0.0278	0.031	0.0343	0.0384	0.0424
in transcutol	0.218	0.233	0.247	0.262	0.276
in water	1.08e-06	1.4e-06	1.77e-06	2.29e-06	2.91e-06

Settings	solubility (mole fraction)
in PEG-400, 288.15 K	0.171
in PEG-400, 293.15 K	0.182
in PEG-400, 298.15 K	0.194
in PEG-400, 303.15 K	0.206
in PEG-400, 308.15 K	0.219
